In ChEMBL document CHEMBL1201862, “PubChem BioAssay data set” (2004) one finds AC50, IC50 and EC50 data, which are given here for eleven molecules.

In one test the target is Paired box protein Pax-8 (Homo sapiens, UniProt Q06710). Briefly: PAX8 transcriptional activity inhibition in RMG-I – RMG-I cells, luciferase, cherry-pick, dose response (AID 687027).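 Note: luciferase reporter driven by Pax8 target thyroperoxidase promoter measured by SteadyGlo luminescence.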 It counts as functional, cell-based.
Test [1] is described as follows: cAMP pathway inhibition in counterscreen cell line – TR-FRET cAMP detection, counter-screen for MC4R biased antagonist project, dose response (AID 602305).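 Note: U2OS cells stimulated with forskolin near its EC80 as the cAMP inducer; potency is for inhibition of forskolin-stimulated cAMP signaling.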 It counts as functional, cell-based. For orientation: The purpose of a counterscreen is to sort out artefacts and off-target activity.
The nature of test [2]: reduction of Shn3 3'UTR-driven luciferase in osteoblasts – cell-based, Clone20 osteoblasts, firefly luciferase, cherry-picked, dose response (AID 624132).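 Note: firefly luciferase luminescence from reporter carrying the Shn3 3'UTR in osteoblasts.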 It counts as functional.
Test [3] can be described thus: viability loss in A549 lung cells – cell-based, 24 h, CellTiter-Glo luminescence, cherry-picks, cytotoxicity control, dose response (AID 1053115). It counts as functional. Conditions: A549, 24 h. In general terms: Cellular ATP, detected with luciferase, serves as a proxy for viable cell number.
A short description of test [4]: lung carcinoma cell viability loss – CellTiter-Glo luminescence, dry powder, set 17, dose response (AID 1117284). It counts as functional, cell-based. Conditions: A549.
Test [5] is described as follows: loss of viability in HepG2 cells – cell-based, CellTiter-Glo, cherry-picked, cytotoxicity control for Shn3 inhibitor project, dose response (AID 624134). It counts as functional.
A short description of test [6]: non-specific 3'UTR reporter inhibition in Clone20-Shn3RL – cell-based, Renilla luciferase, cherry-picked, counter-screen for Shn3 inhibitor project, dose response (AID 624133). It counts as functional.
In a further test the target is Melanocortin receptor 4 (Homo sapiens, UniProt P32245). Briefly: inhibitors of MC4R cAMP signaling – cell-based, TR-FRET, biased antagonists, dose response (AID 602298).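 Note: antagonist potency against agonist-stimulated cAMP production.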 It counts as functional. On the technique in general: In TR-FRET formats the signal depends on donor and acceptor labels being close together.
A short description of test [7]: P. falciparum Dd2 growth inhibitors, dose response, SYBR Green, cherry-picked samples (AID 1159567). It counts as functional, cell-based.
The nature of test [8]: Dd2 malaria parasite growth inhibition potency – SYBR Green, dry powder samples, dose response (AID 1159566).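 Note: potency for growth inhibition with lower SYBR green DNA signal.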 It counts as functional, cell-based.
Test [9] in a line: growth inhibition of yeast DHODH-expressing 3D7 parasites – SYBR Green, dry powder samples, dose response (AID 1159570).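 Note: parasite growth measured after 72 hours of compound exposure.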 It counts as functional, cell-based.
Test [10] in a line: toxicity to human HepG2 hepatoma cells – cell-based, plate reader, dry powder samples, cytotoxicity control, dose response (AID 1159569).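 Note: inhibitor potency with signal falling toward the positive control level.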 It counts as functional.
Test [11] can be described thus: growth inhibition of PfATP4-mutant resistant parasites – NITD609-resistant line, SYBR Green, dry powder, dose response (AID 1159571).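 Note: parasites synchronized at ring stage by sorbitol before testing.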 It counts as functional, cell-based.
The nature of test [12]: antimalarial activity against Dd2 parasites – SYBR Green fluorescence, erythrocytes, dry powder, set 2, dose response (AID 1159574). It counts as functional, cell-based.
The nature of test [13]: HPDE-C7 pancreatic duct cell viability loss – fluorescence, HTS (AID 430). It counts as functional, cell-based. Conditions: Homo sapiens.
Test [14] in a line: IC50 of Artemis nuclease activity blockers – biochemical, fluorescence intensity, dose response (AID 720701).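 Note: Artemis endonuclease enzyme.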 It counts as functional.
Test [15] in a line: viability loss of HPDE-C7K cells – cell-based, fluorescence, HTS, primary screen (AID 431). It counts as functional. Particulars: Homo sapiens.
Test [16] has as its target RNA-editing ligase 1, mitochondrial (Trypanosoma brucei brucei, UniProt P86926). Briefly: inhibition of trypanosome RNA editing ligase – biochemical, fluorescence, Trypanosoma brucei, dose response (AID 1117295). It counts as functional.
Test [17] is described as follows: Luminescence Cell-Based Dose Confirmation HTS to Identify Inhibitors of Platelet Dense Granule Release. [Related pubchem assays: 1663 (Primary HTS), 1678 (Summary of Project)]. It counts as functional.
Test [18] can be described thus: Fluorescence Cell-Based Dose Response to Identify Inhibitors of Thrombin Receptor-Activating Peptide SFLLRN-Mediated P-Selectin Induction on Platelets. [Related pubchem assays: 1663 (Primary HTS), 1889 (retest at dose ), 1891 (counterscreen), 1678 (Project Summary)]. It counts as functional.
Test [19] deals with Luciferin 4-monooxygenase (Photinus pyralis, UniProt P08659). Kind of test: inhibition of purified Photinus pyralis luciferase – biochemical, luminescence, dose response (AID 1891).
Test [20] in a line: Late stage results for the probe development effort to identify inhibitors of Plasmodium falciparum gametocytes: Luminescence-based cell-based high throughput dose response assay to identify inhibitors of viability of late stage Plasmodium falciparum gametocytes. It counts as functional.
Test [21] is described as follows: Luminescence Cell-Based Dose Response HTS to Identify Activators of Luciferase Translation or Activity in H4 […] Cells. [Related pubchem assays: 1829 (Project Summary), 1814 (Primary HTS)]. It counts as functional.
Test [22] has as its target Heat shock protein HSP 90-alpha (Homo sapiens, UniProt P07900). Briefly: Luminescence-based dose response biochemical high throughput screening assay for inhibitors of the Heat Shock Protein 90 (HSP90). [Related pubchem assays: 1831 (Summary AID.), 1846 (Confirmation screen.), 1789 (Primary screen.)].
A further test deals with H4. Briefly: Luminescence Cell-Based Dose Response HTS to Identify Activators of 5'UTR Stem-Loop Driven Prion Protein mRNA Translation in H4 Neuroglioblastoma Cells. [Related pubchem assays: 1829 (Project Summary), 1814 (Primary HTS)]. It counts as functional. Particulars: Homo sapiens.
Test [23] can be described thus: Luminescence Cell-Based Dose Confirmation HTS to Identify Activators of 5'UTR Stem-Loop Driven Alpha-Synuclein mRNA Translation in H4 Neuroglioblastoma Cells. [Related pubchem assays: 1829 (Project Summary), 1814 (Primary HTS)]. It counts as functional.
Test [24] in a line: general cell-killing toxicity readout – plate reader, dry powder samples, cytotoxicity control for PAX8 inhibitor project, dose response (AID 743021). It counts as functional, cell-based.
Test [25] in a line: OVCAR-3 cell viability loss – plate reader, dry powder samples, PAX8 inhibitor project, dose response (AID 743044). It counts as functional, cell-based.
The nature of test [26]: OVCAR8 cell viability loss – plate reader, dry powder samples, PAX8 project, dose response (AID 743197). It counts as functional, cell-based. Particulars: OVCAR-8.
Test [27] can be described thus: A2780 cell killing – plate reader, dry powder samples, cytotoxicity control, dose response (AID 743046). It counts as functional, cell-based.
Test [28] is described as follows: IGROV1 cell killing – plate reader, dry powder samples, PAX8 inhibitor project, dose response (AID 743043). It counts as functional, cell-based. Particulars: IGROV-1.
Test [29] is described as follows: M. tuberculosis growth inhibition, HTS (AID 449762). It counts as functional.
Test [30] can be described thus: toxicity to human hepatoma HepG2 cells – cell-based, cherry-picked samples, cytotoxicity control, dose response (AID 1159577). It counts as functional.
A short description of test [31]: glucagon-like peptide-1 release potency in STC-1, concentration-response, half-maximal inhibitory concentration in the STC-1 line (AID 1117345). It counts as functional, cell-based.
The nature of test [32]: Potency on glucagon-like peptide 1 release, dose-response in NCI-H716 cell line, half maximal inhibitory concentration (AID 1117344). It counts as functional, cell-based.
Test [33] is described as follows: IC50 of insulin release inhibition, rat insulinoma INS-1E line, 5 mM glucose, cell-based (AID 1117331). It counts as functional.

The source made the active and inactive calls.

Paired box protein Pax-8, sequence (Q06710 whole entry): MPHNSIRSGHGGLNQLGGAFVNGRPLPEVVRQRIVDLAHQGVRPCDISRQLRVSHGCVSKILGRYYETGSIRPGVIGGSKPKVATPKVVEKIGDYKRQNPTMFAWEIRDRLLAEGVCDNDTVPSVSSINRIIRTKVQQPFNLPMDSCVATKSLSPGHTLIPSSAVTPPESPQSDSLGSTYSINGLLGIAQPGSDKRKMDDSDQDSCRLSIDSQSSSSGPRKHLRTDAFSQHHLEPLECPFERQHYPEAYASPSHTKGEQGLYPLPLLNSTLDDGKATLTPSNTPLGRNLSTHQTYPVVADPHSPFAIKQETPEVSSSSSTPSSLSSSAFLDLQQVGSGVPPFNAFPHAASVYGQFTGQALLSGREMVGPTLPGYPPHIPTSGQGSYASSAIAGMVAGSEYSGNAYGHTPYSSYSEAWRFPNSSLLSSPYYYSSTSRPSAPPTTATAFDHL
Luciferin 4-monooxygenase, sequence (P08659 whole entry): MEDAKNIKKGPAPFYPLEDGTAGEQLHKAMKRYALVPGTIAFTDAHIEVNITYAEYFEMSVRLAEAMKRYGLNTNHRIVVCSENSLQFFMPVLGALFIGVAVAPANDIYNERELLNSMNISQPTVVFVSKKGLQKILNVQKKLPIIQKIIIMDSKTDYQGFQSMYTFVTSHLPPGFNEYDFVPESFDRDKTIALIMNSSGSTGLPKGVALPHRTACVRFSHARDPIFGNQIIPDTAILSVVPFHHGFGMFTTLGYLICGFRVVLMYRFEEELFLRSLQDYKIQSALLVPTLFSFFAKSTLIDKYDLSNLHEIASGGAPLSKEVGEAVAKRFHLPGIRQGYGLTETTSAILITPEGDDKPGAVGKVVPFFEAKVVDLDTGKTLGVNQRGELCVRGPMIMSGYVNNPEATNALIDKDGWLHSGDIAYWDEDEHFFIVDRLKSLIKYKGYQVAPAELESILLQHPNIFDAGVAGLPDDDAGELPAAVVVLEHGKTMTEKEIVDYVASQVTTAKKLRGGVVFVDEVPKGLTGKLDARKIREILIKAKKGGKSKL
RNA-editing ligase 1, mitochondrial, sequence (P86926 whole entry): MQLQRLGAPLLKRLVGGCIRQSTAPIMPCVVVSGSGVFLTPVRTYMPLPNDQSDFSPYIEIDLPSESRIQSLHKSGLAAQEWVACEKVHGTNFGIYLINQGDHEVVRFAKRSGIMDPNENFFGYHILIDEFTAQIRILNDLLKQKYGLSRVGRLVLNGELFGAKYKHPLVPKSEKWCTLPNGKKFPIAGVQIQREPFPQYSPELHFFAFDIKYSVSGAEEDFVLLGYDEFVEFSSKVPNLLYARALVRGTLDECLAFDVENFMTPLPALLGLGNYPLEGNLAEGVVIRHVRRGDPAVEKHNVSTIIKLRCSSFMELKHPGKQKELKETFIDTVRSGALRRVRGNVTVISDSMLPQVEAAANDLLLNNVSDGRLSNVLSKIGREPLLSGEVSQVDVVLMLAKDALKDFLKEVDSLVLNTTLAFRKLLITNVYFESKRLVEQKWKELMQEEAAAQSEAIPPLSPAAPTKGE
Melanocortin receptor 4, sequence (P32245 whole entry): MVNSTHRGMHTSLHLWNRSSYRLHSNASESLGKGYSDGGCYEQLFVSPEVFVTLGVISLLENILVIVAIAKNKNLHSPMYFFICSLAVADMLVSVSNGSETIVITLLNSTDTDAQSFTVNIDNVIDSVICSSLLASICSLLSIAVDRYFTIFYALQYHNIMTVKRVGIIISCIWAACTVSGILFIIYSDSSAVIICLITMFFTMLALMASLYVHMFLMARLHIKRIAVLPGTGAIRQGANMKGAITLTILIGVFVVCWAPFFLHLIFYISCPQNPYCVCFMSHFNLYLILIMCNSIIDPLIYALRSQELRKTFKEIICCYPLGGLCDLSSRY

What is called AC50 is the concentration at which the activity in the assay is half-maximal. As usually defined, the IC50 is the concentration needed to halve the response being measured. Regarding `C[C@H](O)C#Cc1ccc2c(c1)O[C@@H](CN(C)Cc1ccc(-c3ccccc3)cc1)[C@H](C)CN([C@@H](C)CO)S2(=O)=O`, the AC50 at Paired box protein Pax-8 was 6.73 µM (active); in test [2], 10.3 µM (active); in test [3] it was 42.8 µM (active); in test [4] it was 28.3 µM (active); in [5], 19.4 µM (active); in test [6], 27.6 µM (active). For the same molecule, the IC50 (in [1]; on Melanocortin receptor 4) was > 64.6 µM (inactive) each time.

Consider `C[C@@H]1CN([C@H](C)CO)S(=O)(=O)c2ccc(-c3ccncc3)cc2O[C@H]1CN(C)Cc1ccc(Oc2ccccc2)cc1`, for which the AC50 in [7] is 1.51 µM (active); in [8] it was 0.583 µM (active); in [9] it was 0.573 µM (active); in [10], 50 µM (active); in [11], 0.841 µM (active).

In the case of `COc1cccc(C#Cc2ccc([C@@H]3[C@H](CO)N4C(=O)CN(C(=O)Cc5ccccc5)C[C@@H]34)cc2)c1`, the AC50 in test [12] was > 20 µM (inactive).

In general, EC50 refers to the midpoint of the concentration-response curve. As for `Nc1c(C(=O)NC2CCCC2)c2nc3ccccc3nc2n1CC1CCCO1` (stereo not drawn), the EC50 was 14.4 µM (active) in test [13] and 13.2 µM (active) in test [15]. The IC50 in [14] was > 20 µM (inactive); in test [16] it was 21.1 µM (inactive).

For `O=C(Oc1ccc(Cl)cc1)c1ccc(COC(=O)c2cnccn2)cc1`, the EC50 was 7.27 µM (active) in test [17], > 100 µM (not active) in test [18] and > 112 µM (not active) in test [19].

For `Cc1ccc(-c2nn(-c3ccccc3)cc2C(=O)Nc2nccs2)cc1`, in test [20], the IC50 was > 74.4 µM (inactive).

As to `Cc1nc(NC(=O)c2cccc(Cl)c2)sc1C(=O)N1CCCCC1`, the figures for the EC50 (in test [21]; in the test with H4; in test [23]) were 14.2 µM (active), 20.1 µM (active) and 12.2 µM (active), respectively. In [22], the IC50 was 6.4 µM (active).

For `C[C@H](CO)N1C[C@H](C)[C@H](CN(C)Cc2ccc(C(F)(F)F)cc2)OCCCC[C@H](C)Oc2ccc(NC(=O)Cc3ccccc3)cc2C1=O`, the AC50 at Paired box protein Pax-8 is 6.42 µM (active); in test [24] it was 69.3 µM (active); in test [25] it was 35.4 µM (active); in [26], 67 µM (active); in test [27], 49 µM (active); in [28], 25.6 µM (active).

In the case of `O=C1c2ccccc2C(=O)N1Nc1ccccc1`, the IC50 in test [29] was > 100 µM (active).

Turning to `Cc1cccc(S(=O)(=O)N2CCCCN3[C@@H](CO)[C@@H](c4ccc(-c5ccccc5)cc4)[C@@H]3C2)c1`, the AC50 was 1.26 µM (active) in [7] and 19.8 µM (active) in [30].

For the molecule `Cn1cc([S+](C)[O-])c(=O)c2ccc(F)cc21` (stereo not drawn) [FLOSEQUINAN], the figures for the IC50 in [31], in test [32] and in [33] were > 40 µM (inactive), > 40 µM (inactive) and > 33.3 µM (inactive), respectively.
